Test results taken from publication PMC7397056, “Design, Facile Synthesis and Characterization of Dichloro Substituted Chalcones and Dihydropyrazole Derivatives for Their Antifungal, Antitubercular and Antiproliferative Activities” (Molecules, 2020).
≈ marks a conversion by molar mass, not a printed value.

system: Mycobacterium tuberculosis H37Rv; assay: Antitubercular activity, broth dilution assay (MIC); format: cell-based; details: Mycobacterium tuberculosis, H37RV, 504 h, Middlebrook 7H9 broth, 37 °C, 21 days

SMILES	MIC [µM]
O=C(/C=C/c1ccc2c(c1)OCO2)c1ccc(Cl)c(Cl)c1 [Compound 10]	72.2 (≈ 23.2 µg/mL)
O=C(/C=C/c1ccccn1)c1ccc(Cl)c(Cl)c1 [Compound 11, (E)-1-(3,4-dichlorophenyl)-3-(pyridin-2-yl)prop-2-en-1-one]	45.1 (≈ 12.5 µg/mL)
O=C(/C=C/c1cccnc1)c1ccc(Cl)c(Cl)c1 [Compound 12, (E)-1-(3,4-dichlorophenyl)-3-(pyridin-3-yl)prop-2-en-1-one]	22.6 (≈ 6.27 µg/mL)
O=C(/C=C/c1ccncc1)c1ccc(Cl)c(Cl)c1 [Compound 13]	45.1 (≈ 12.5 µg/mL)
O=C(/C=C/c1ccco1)c1ccc(Cl)c(Cl)c1 [Compound 14, (E)-1-(3,4-dichlorophenyl)-3-(furan-2-yl)prop-2-en-1-one]	47 (≈ 12.6 µg/mL)
O=C(/C=C/c1ccc[nH]1)c1ccc(Cl)c(Cl)c1 [Compound 15, (E)-1-(3,4-dichlorophenyl)-3-(1H-pyrrol-2-yl)prop-2-en-1-one]	47.2 (≈ 12.6 µg/mL)

system: prostate cancer cell lines (DU-145); assay: Antiproliferative activity, MTT assay; format: cell-based; details: Homo sapiens, 48 h, mean ± SD (n = 3)
Procedure: (§1) The antiproliferative activity of the compounds was determined their IC50 values. Methotrexate (Mtx; positive control) was used as a reference standard for comparing the antiproliferative activity of the target compounds. The MTT (3-(4,5-dimethylthiazol-2-yl)-2,5-diphenyl tetrazolium bromide) assay was based on the reduction of the soluble MTT (0.5 mg mL^−1, 100 µL) into a blue-purple formazan product, mainly by the activity of mitochondrial reductase enzymes inside the living cells. The prostate cancer cell lines, DU-145 cells, were cultured in Dulbecco’s Modified Eagle Medium (DMEM) media at 37 °C and humidified at 5% CO2. Stock solutions of the test compounds (17–46) were prepared in 0.1% DMSO followed by dilution with sterile water to obtain the desired final concentrations. Briefly, the cells were placed on 96-well plates at 100 µL total volume with the density of 1 × 10^4 cells per well and were allowed to adhere for 24 h. Then the medium was replaced with fresh media containing different dilutions of the test compounds and incubated for additional 48 h at 37 °C in DMEM with 10% fetal bovine serum (FBS) medium. Subsequently, the medium was replaced with 90 μL of fresh DMEM without FBS. The above wells were treated with 10 μL of MTT reagent (5 mg/mL of stock solution in DMEM without FBS) and incubated at 37 °C for 3–4 h. The formed blue formazan crystals were dissolved in 200 μL of DMSO. The optical density was determined at 570 nm using a micro plate reader. The assay was performed in triplicate for three independent experiments. The same experimentation was also done to confirm that the DMSO (negative control) had no effect in the study. The results had good reproducibility between replicate wells with standard errors below 10%. The antiproliferative activity results measured as IC50 values in µg/mL were converted and expressed in µM. Additionally, the cytotoxic activity of the compounds was also measured employing the same protocol discussed above to assess their toxicity on normal human cell lines (L02).

SMILES	IC50 [µM]
O=C(/C=C/c1ccc2c(c1)OCO2)c1ccc(Cl)c(Cl)c1 [Compound 10]	138 ± 2
O=C(/C=C/c1ccccn1)c1ccc(Cl)c(Cl)c1 [Compound 11, (E)-1-(3,4-dichlorophenyl)-3-(pyridin-2-yl)prop-2-en-1-one]	353 ± 2
O=C(/C=C/c1cccnc1)c1ccc(Cl)c(Cl)c1 [Compound 12, (E)-1-(3,4-dichlorophenyl)-3-(pyridin-3-yl)prop-2-en-1-one]	256 ± 2
O=C(/C=C/c1ccncc1)c1ccc(Cl)c(Cl)c1 [Compound 13]	209 ± 2
O=C(/C=C/c1ccco1)c1ccc(Cl)c(Cl)c1 [Compound 14, (E)-1-(3,4-dichlorophenyl)-3-(furan-2-yl)prop-2-en-1-one]	206 ± 2
O=C(/C=C/c1ccc[nH]1)c1ccc(Cl)c(Cl)c1 [Compound 15, (E)-1-(3,4-dichlorophenyl)-3-(1H-pyrrol-2-yl)prop-2-en-1-one]	94 ± 2

system: not listed separately; assay: Cytotoxic activity on normal cells, MTT assay; format: cell-based; details: L02 cells (normal human cell line)
Procedure: as §1

SMILES	IC50 at 48 h [µg/mL]
O=C(/C=C/c1ccc2c(c1)OCO2)c1ccc(Cl)c(Cl)c1 [Compound 10]	> 50
O=C(/C=C/c1ccccn1)c1ccc(Cl)c(Cl)c1 [Compound 11, (E)-1-(3,4-dichlorophenyl)-3-(pyridin-2-yl)prop-2-en-1-one]	> 50
O=C(/C=C/c1cccnc1)c1ccc(Cl)c(Cl)c1 [Compound 12, (E)-1-(3,4-dichlorophenyl)-3-(pyridin-3-yl)prop-2-en-1-one]	> 50
O=C(/C=C/c1ccncc1)c1ccc(Cl)c(Cl)c1 [Compound 13]	> 50
O=C(/C=C/c1ccco1)c1ccc(Cl)c(Cl)c1 [Compound 14, (E)-1-(3,4-dichlorophenyl)-3-(furan-2-yl)prop-2-en-1-one]	> 50
O=C(/C=C/c1ccc[nH]1)c1ccc(Cl)c(Cl)c1 [Compound 15, (E)-1-(3,4-dichlorophenyl)-3-(1H-pyrrol-2-yl)prop-2-en-1-one]	> 50

system: not given; assay: not given; details: not given

SMILES	melting point [°C]
O=C(/C=C/c1ccccn1)c1ccc(Cl)c(Cl)c1 [Compound 11, (E)-1-(3,4-dichlorophenyl)-3-(pyridin-2-yl)prop-2-en-1-one]	156
O=C(/C=C/c1cccnc1)c1ccc(Cl)c(Cl)c1 [Compound 12, (E)-1-(3,4-dichlorophenyl)-3-(pyridin-3-yl)prop-2-en-1-one]	191
O=C(/C=C/c1ccco1)c1ccc(Cl)c(Cl)c1 [Compound 14, (E)-1-(3,4-dichlorophenyl)-3-(furan-2-yl)prop-2-en-1-one]	172
O=C(/C=C/c1ccc[nH]1)c1ccc(Cl)c(Cl)c1 [Compound 15, (E)-1-(3,4-dichlorophenyl)-3-(1H-pyrrol-2-yl)prop-2-en-1-one]	238

system: Aspergillus niger (ATCC-6275); assay: Antifungal activity, serial tube dilution method (MIC); details: Aspergillus niger, ATCC6275, 18 h, read-out: Antifungal activity MIC, A. niger, serial tube dilution, 37 °C, 18 h, average of three

SMILES	MIC [µM]
O=C(/C=C/c1ccc2c(c1)OCO2)c1ccc(Cl)c(Cl)c1 [Compound 10]	23 (≈ 7.39 µg/mL)
O=C(/C=C/c1ccccn1)c1ccc(Cl)c(Cl)c1 [Compound 11, (E)-1-(3,4-dichlorophenyl)-3-(pyridin-2-yl)prop-2-en-1-one]	28.9 (≈ 8.03 µg/mL)
O=C(/C=C/c1cccnc1)c1ccc(Cl)c(Cl)c1 [Compound 12, (E)-1-(3,4-dichlorophenyl)-3-(pyridin-3-yl)prop-2-en-1-one]	28.9 (≈ 8.03 µg/mL)
O=C(/C=C/c1ccncc1)c1ccc(Cl)c(Cl)c1 [Compound 13]	57.8 (≈ 16.1 µg/mL)
O=C(/C=C/c1ccco1)c1ccc(Cl)c(Cl)c1 [Compound 14, (E)-1-(3,4-dichlorophenyl)-3-(furan-2-yl)prop-2-en-1-one]	235 (≈ 62.8 µg/mL)
O=C(/C=C/c1ccc[nH]1)c1ccc(Cl)c(Cl)c1 [Compound 15, (E)-1-(3,4-dichlorophenyl)-3-(1H-pyrrol-2-yl)prop-2-en-1-one]	60.4 (≈ 16.1 µg/mL)

same assay, conditions: serial tube dilution, 37 °C, 18 h, average of three

SMILES	Antifungal activity MIC, A. niger [µM]
O=C(/C=C/c1ccc2c(c1)OCO2)c1ccc(Cl)c(Cl)c1 [Compound 10]	23.11

system: Candida tropicalis (ATCC-1369); assay: as above; details: Candida tropicalis, ATCC1369, 18 h, read-out: Antifungal activity MIC, C. tropicalis, serial tube dilution, 37 °C, 18 h, average of three

SMILES	MIC [µM]
O=C(/C=C/c1ccc2c(c1)OCO2)c1ccc(Cl)c(Cl)c1 [Compound 10]	180 (≈ 57.8 µg/mL)
O=C(/C=C/c1ccccn1)c1ccc(Cl)c(Cl)c1 [Compound 11, (E)-1-(3,4-dichlorophenyl)-3-(pyridin-2-yl)prop-2-en-1-one]	28.9 (≈ 8.03 µg/mL)
O=C(/C=C/c1cccnc1)c1ccc(Cl)c(Cl)c1 [Compound 12, (E)-1-(3,4-dichlorophenyl)-3-(pyridin-3-yl)prop-2-en-1-one]	14.4 (≈ 4.01 µg/mL)
O=C(/C=C/c1ccncc1)c1ccc(Cl)c(Cl)c1 [Compound 13]	113 (≈ 31.4 µg/mL)
O=C(/C=C/c1ccco1)c1ccc(Cl)c(Cl)c1 [Compound 14, (E)-1-(3,4-dichlorophenyl)-3-(furan-2-yl)prop-2-en-1-one]	117 (≈ 31.4 µg/mL)
O=C(/C=C/c1ccc[nH]1)c1ccc(Cl)c(Cl)c1 [Compound 15, (E)-1-(3,4-dichlorophenyl)-3-(1H-pyrrol-2-yl)prop-2-en-1-one]	60.4 (≈ 16.1 µg/mL)

same assay, conditions: serial tube dilution, 37 °C, 18 h, average of three

SMILES	Antifungal activity MIC, C. tropicalis [µM]
O=C(/C=C/c1ccc2c(c1)OCO2)c1ccc(Cl)c(Cl)c1 [Compound 10]	180.62
